Source: ChEMBL document CHEMBL5257080, “Optimization of physicochemical properties of pyrrolidine GPR40 AgoPAMs results in a differentiated profile with improved pharmacokinetics and reduced off-target activities” (Bioorg Med Chem, 2023)
pEC50, pIC50: −log10 of the molar value. Values after ≈ are worked out from the molar mass of the structure shown. Active and inactive are the calls of the source. No cut-off for these calls is given here.

Assays:
Rattus norvegicus [1] = test: Anti-hyperglycemic activity against Sprague-Dawley rat assessed as reduction in plasma glucose level at 3 mg/kg, po measured for 20 to 120 mins by OGTT analysis; assay type: functional, organism-based; conditions: time lower 20.0 min, time upper […]
[2] = Metabolic stability in human liver microsome assessed as parent compound remaining after 10 mins; assay type: ADME; conditions: liver microsomes, read-out: Stability
[3] = Tmax in rat at 12 mg/kg qd; assay type: ADME, organism-based; conditions: in vivo
[4] = Volume of distribution at steady state in mouse at 3 mg/kg, iv; assay type: ADME, organism-based; conditions: in vivo, read-out: Vdss
[5] = Total AUC in rat at 1 mg/kg, po; assay type: ADME, organism-based; parameters: dose 1 mg/kg, route po; conditions: in vivo
Cytochrome P450 2C8 = biological target: T1, Cytochrome P450 2C8 (Homo sapiens, UniProt P10632); test: Inhibition of CYP2C8 in human liver microsomes; assay type: ADME, Microsome
T1 sequence (P10632 whole entry): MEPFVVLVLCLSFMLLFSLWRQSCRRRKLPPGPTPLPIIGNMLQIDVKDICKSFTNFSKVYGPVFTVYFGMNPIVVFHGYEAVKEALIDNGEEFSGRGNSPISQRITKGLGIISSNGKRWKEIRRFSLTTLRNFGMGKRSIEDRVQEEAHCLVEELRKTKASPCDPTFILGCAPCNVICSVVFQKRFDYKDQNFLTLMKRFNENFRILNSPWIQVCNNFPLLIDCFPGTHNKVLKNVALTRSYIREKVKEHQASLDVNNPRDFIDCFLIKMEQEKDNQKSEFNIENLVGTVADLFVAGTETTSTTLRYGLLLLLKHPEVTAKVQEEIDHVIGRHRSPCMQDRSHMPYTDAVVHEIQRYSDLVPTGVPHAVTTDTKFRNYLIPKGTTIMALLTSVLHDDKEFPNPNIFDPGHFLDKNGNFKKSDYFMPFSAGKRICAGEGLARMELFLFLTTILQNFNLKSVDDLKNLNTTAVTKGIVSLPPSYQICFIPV

Cytochrome P450 2B6 = biological target: T2, Cytochrome P450 2B6 (Homo sapiens, UniProt P20813); test: Inhibition of CYP2B6 in human liver microsomes; assay type: ADME, Microsome
T2 sequence (P20813 whole entry): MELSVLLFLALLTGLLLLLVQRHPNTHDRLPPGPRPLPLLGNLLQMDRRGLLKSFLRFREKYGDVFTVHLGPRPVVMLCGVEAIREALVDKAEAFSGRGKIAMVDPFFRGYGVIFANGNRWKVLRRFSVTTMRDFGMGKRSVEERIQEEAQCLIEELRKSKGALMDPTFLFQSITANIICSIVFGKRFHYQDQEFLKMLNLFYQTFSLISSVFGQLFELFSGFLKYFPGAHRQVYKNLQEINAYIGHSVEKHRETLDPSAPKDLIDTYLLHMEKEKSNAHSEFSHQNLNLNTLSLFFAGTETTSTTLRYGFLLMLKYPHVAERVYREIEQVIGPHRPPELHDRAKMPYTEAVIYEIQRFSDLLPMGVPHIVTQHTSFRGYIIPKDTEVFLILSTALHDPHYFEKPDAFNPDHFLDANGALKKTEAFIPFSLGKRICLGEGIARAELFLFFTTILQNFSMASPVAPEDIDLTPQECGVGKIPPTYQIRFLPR

[6] = Half life in mouse at 3 mg/kg, iv; assay type: ADME, organism-based; conditions: in vivo
[7] = Solubility of the compound in FeSSIF at pH 6.5; assay type: ADME
Cytochrome P450 2C19 = Cytochrome P450 2C19 (Homo sapiens, UniProt P33261); test: Inhibition of CYP2C19 in human liver microsomes; assay type: ADME, Microsome
Cytochrome P450 2C19, sequence (P33261 whole entry): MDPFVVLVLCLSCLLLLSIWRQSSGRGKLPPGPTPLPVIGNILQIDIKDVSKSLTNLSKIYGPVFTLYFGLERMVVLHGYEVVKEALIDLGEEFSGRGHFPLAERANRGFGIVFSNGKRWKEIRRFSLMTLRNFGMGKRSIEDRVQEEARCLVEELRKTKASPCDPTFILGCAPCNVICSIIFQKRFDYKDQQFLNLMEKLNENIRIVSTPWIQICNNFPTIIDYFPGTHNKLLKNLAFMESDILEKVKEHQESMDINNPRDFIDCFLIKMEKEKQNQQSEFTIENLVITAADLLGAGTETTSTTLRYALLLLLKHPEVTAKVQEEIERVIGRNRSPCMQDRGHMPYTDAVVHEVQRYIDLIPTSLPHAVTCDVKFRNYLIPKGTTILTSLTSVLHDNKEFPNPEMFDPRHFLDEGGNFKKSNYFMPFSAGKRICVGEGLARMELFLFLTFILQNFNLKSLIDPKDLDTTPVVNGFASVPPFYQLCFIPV

[8] = Cmax in rat at 300 mg/kg qd; assay type: ADME, organism-based; parameters: dose 300 mg/kg; conditions: in vivo
[9] = Plasma protein binding in mouse assessed as fraction unbound; assay type: ADME, cell-free
[10] = biological target: Free fatty acid receptor 1 (Mus musculus, UniProt Q76JU9); test: Positive allosteric modulation of mouse GPR40
Free fatty acid receptor 1 (Mus musculus, UniProt Q76JU9), sequence (Q76JU9 whole entry): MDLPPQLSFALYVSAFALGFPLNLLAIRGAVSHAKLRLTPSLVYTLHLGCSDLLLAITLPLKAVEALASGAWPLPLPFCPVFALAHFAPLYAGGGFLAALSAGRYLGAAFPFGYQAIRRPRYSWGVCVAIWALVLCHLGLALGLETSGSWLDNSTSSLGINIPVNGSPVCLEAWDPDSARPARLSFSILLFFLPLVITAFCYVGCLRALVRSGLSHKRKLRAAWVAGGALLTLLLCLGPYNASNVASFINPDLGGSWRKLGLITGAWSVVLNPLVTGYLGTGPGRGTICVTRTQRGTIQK

[11] = Toxicity in rat assessed as NOAEL at 100 mg/kg measured for 28 days; assay type: organism-based; conditions: in vivo, time 28 day
Rattus norvegicus [12] = test: Anti-hyperglycemic activity against Sprague-Dawley rat assessed as reduction in plasma glucose AUC at 0.3 mg/kg, po measured for 20 to 120 mins by OGTT analysis; assay type: functional, organism-based; conditions: time lower 20.0 min, time upper […]
Rattus norvegicus [13] = test: Anti-hyperglycemic activity against Sprague-Dawley rat assessed as reduction in plasma glucose AUC at 0.3 mg/kg, po measured at 3 hrs in presence of BMS-538305 by OGTT analysis; assay type: functional; parameters: scale not given: the % may be the effect or the level left
[14] = AUC (0 to 24 hrs) in rat at 300 mg/kg qd; assay type: ADME, organism-based; parameters: dose 300 mg/kg; conditions: in vivo
[15] = Permeability of compound across apical to basolateral side in dog MDCK cells; assay type: ADME, cell-based, Canis lupus familiaris; conditions: read-out: permeability
[16] = Total AUC in mouse at 1 mg/kg, po; assay type: ADME, organism-based; parameters: dose 1 mg/kg, route po; conditions: in vivo
[17] = AUC (0 to 24 hrs) in rat at 60 mg/kg qd; assay type: ADME, organism-based; parameters: dose 60 mg/kg; conditions: in vivo
[18] = Cmax in mouse at 1 mg/kg, po; assay type: ADME, organism-based; parameters: dose 1 mg/kg, route po; conditions: in vivo
[19] = Cmax in mouse at 1 mg/kg; assay type: ADME, organism-based; parameters: dose 1 mg/kg; conditions: in vivo
[20] = AUC (0 to 24 hrs) in rat at 100 mg/kg, po qd; assay type: ADME, organism-based; parameters: dose 100 mg/kg, route po; conditions: in vivo
Mus musculus [21] = species: Mus musculus; test: Anti-hyperglycemic activity in wild type mouse assessed as reduction in plasma glucose level by OGTT analysis; assay type: functional, organism-based
[22] = Plasma protein binding in human assessed as fraction unbound; assay type: ADME, cell-free
[23] = Oral bioavailability in mouse at 1 mg/kg; assay type: ADME, organism-based; conditions: in vivo
[24] = Toxicity in rat assessed as vacuolation in pancrease at 100 mg/kg measured for 28 days; assay type: organism-based; conditions: in vivo, time 28 day
[25] = Cmax in rat at 12 mg/kg qd; assay type: ADME, organism-based; parameters: dose 12 mg/kg; conditions: in vivo
[26] = Clearance in mouse at 3 mg/kg, iv; assay type: ADME, organism-based; conditions: in vivo
[27] = Volume of distribution at steady state in rat at 3 mg/kg, iv; assay type: ADME, organism-based; conditions: in vivo, read-out: Vdss
Mus musculus [28] = species: Mus musculus; test: Anti-hyperglycemic activity in GPR40 knockout mouse assessed as reduction in plasma glucose level by OGTT analysis; assay type: functional, organism-based
[29] = Toxicity in rat assessed as NOAEL by measuring AUC (0 to 24 hrs) measured for 28 days; conditions: in vivo, time 28 day
Cytochrome P450 2C9 = Cytochrome P450 2C9 (Homo sapiens, UniProt P11712); test: Inhibition of CYP2C9 in human liver microsomes; assay type: ADME, Microsome
Cytochrome P450 2C9, sequence (P11712 whole entry): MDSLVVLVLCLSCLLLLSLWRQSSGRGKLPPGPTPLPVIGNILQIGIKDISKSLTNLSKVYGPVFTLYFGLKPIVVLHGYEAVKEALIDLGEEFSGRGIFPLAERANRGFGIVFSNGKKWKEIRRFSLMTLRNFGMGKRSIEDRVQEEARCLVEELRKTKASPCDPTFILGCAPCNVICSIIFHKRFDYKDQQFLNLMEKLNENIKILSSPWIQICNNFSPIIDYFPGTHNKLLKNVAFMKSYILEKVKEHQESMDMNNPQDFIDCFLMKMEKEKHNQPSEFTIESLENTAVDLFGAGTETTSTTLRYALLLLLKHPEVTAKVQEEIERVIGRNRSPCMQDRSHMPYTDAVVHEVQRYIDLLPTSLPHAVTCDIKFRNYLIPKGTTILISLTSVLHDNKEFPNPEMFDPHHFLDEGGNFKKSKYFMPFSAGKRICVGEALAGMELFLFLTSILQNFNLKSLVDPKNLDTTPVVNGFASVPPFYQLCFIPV

[30] = Toxicity in rat assessed as reduction in cell size at 100 mg/kg measured for 28 days; assay type: organism-based; conditions: in vivo, time 28 day
Cytochrome P450 3A4 = Cytochrome P450 3A4 (Homo sapiens, UniProt P08684); test: Inhibition of CYP3A4 in human liver microsomes; assay type: ADME, Microsome
Cytochrome P450 3A4, sequence (P08684 whole entry): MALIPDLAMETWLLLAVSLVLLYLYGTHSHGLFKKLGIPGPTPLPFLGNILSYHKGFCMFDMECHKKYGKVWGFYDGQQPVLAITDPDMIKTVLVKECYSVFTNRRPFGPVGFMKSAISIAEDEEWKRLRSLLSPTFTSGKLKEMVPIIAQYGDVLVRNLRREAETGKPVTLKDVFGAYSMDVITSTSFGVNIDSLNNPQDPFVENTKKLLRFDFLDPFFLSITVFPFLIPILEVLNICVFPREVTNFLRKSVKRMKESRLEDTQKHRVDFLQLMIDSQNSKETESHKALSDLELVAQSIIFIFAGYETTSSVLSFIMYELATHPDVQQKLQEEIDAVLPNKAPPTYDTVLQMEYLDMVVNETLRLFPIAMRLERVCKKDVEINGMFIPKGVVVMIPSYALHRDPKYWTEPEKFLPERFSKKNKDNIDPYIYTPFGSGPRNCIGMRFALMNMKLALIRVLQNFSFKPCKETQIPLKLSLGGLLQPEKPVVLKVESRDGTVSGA

Rattus norvegicus [31] = test: Anti-hyperglycemic activity against Sprague-Dawley rat assessed as reduction in plasma glucose AUC at 0.3 mg/kg, po measured for 20 to 120 mins in presence of BMS-538305 by OGTT analysis; assay type: functional; parameters: scale not given: the % may be the effect or the level left; conditions: time 20-120 min
[32] = Solubility of the compound in FaSSIF at pH 6.5; assay type: ADME
[33] = Tmax in rat at 300 mg/kg qd; assay type: ADME, organism-based; conditions: in vivo
[34] = Toxicity in rat assessed as reduction in cell number at 100 mg/kg measured for 28 days; assay type: organism-based; conditions: in vivo, time 28 day
[35] = biological target: T3, Free fatty acid receptor 1 (Homo sapiens, UniProt O14842); test: Positive allosteric modulation of human GPR40 expressed in HEK293 cells assessed as cAMP accumulation; assay type: cell-based
T3 sequence (O14842 whole entry): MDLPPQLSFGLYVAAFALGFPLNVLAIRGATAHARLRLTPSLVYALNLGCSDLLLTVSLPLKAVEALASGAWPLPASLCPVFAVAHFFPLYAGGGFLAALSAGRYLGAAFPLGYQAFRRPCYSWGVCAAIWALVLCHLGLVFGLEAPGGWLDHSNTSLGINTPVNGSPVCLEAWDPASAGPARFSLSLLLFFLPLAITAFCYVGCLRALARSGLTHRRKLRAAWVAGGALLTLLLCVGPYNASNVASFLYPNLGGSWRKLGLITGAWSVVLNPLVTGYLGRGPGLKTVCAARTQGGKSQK

[36] = AUC (0 to 24 hrs) in rat at 12 mg/kg qd; assay type: ADME, organism-based; parameters: dose 12 mg/kg; conditions: in vivo
[37] = Metabolic stability in mouse liver microsome assessed as parent compound remaining after 10 mins; assay type: ADME; conditions: liver microsomes, read-out: Stability
[38] = biological target: T3, Free fatty acid receptor 1; test: Positive allosteric modulation of human GPR40 by calcium based FLIPR analysis
Rattus norvegicus [39] = test: Hyperglycemic activity in Sprague-Dawley rat assessed as effect on blood glucose level at 30 to 100 mg/kg, qd by glucometer; assay type: functional, organism-based; conditions: dose 30-100 mg/kg
[40] = AUC (0-7hrs) in mouse at 1 mg/kg; assay type: ADME, organism-based; parameters: dose 1 mg/kg; conditions: in vivo
[41] = Clearance in rat at 3 mg/kg, iv; assay type: ADME, organism-based; conditions: in vivo
[42] = Half life in rat at 3 mg/kg, iv; assay type: ADME, organism-based; conditions: in vivo
[43] = Metabolic stability in rat liver microsome assessed as parent compound remaining after 10 mins; assay type: ADME; conditions: liver microsomes, read-out: Stability
[44] = Solubility of the compound in FeSSIF at pH 5; assay type: ADME
Cytochrome P450 2D6 = Cytochrome P450 2D6 (Homo sapiens, UniProt P10635); test: Inhibition of CYP2D6 in human liver microsomes; assay type: ADME, Microsome
Cytochrome P450 2D6, sequence (P10635 whole entry): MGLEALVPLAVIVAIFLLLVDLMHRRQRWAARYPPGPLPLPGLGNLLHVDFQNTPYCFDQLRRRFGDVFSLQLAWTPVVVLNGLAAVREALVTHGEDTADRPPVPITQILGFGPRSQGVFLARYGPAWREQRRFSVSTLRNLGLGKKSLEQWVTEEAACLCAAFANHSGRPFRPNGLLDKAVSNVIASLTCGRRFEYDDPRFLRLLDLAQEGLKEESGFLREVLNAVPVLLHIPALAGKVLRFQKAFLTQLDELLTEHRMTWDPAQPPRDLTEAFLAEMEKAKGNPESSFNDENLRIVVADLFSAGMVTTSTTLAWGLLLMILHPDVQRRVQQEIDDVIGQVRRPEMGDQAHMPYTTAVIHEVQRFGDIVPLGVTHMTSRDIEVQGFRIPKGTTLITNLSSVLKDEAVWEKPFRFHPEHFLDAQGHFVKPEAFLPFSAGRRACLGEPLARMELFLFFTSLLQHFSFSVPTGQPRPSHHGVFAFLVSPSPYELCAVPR

[45] = Oral bioavailability in rat at 1 mg/kg; assay type: ADME, organism-based; conditions: in vivo
[46] = Solubility in phosphate buffer at pH 6.5; assay type: physicochemical
[47] = Cmax in rat at 1 mg/kg, po; assay type: ADME, organism-based; parameters: dose 1 mg/kg, route po; conditions: in vivo
[48] = Tmax in rat at 60 mg/kg qd; assay type: ADME, organism-based; conditions: in vivo
[49] = Lipophilicity, logD of compound; assay type: physicochemical; conditions: octanol/water
[50] = Cmax in rat at 60 mg/kg qd; assay type: ADME, organism-based; parameters: dose 60 mg/kg; conditions: in vivo

remaining at 10 min [2]: 100%
Tmax [3]: 2 h
Vd [4]: 1.4 L/kg
AUC [5]: 2.2 µM·h
pIC50 (Cytochrome P450 2C8): 5.08
pIC50 (Cytochrome P450 2B6): 4.54
half-life [6]: 3.4 h
solubility [7]: 1300 µg/mL (≈ 2320 µM)
pIC50 (Cytochrome P450 2C19): 4.40
Cmax [8]: 151 µM
Fu [9]: 0.9%
pEC50 [10]: 7.85
AUC [14]: 3150 µM·h
Papp A→B [15]: 24.3 ×10⁻⁶ cm/s
AUC [16]: 4.4 µM·h
AUC [17]: 534 µM·h
Cmax [18]: 2.8 µM
Cmax [19]: 2.8 µM
AUC [20]: 1480 µM·h
Fu [22]: < 0.1%
bioavailability [23]: 100%
Cmax [25]: 11 µM
clearance [26]: 7.9 mL/min/kg
Vd [27]: 1.1 L/kg
pIC50 (Cytochrome P450 2C9): 4.47
pIC50 (Cytochrome P450 3A4): 4.40
solubility [32]: 239 µg/mL (≈ 425 µM)
Tmax [33]: 2 h
pEC50 [35]: 5.74
AUC [36]: 84 µM·h
remaining at 10 min [37]: 79%
pEC50 [38]: 7.31
AUC(0-t) [40]: 4.4 µM·h
clearance [41]: 5.9 mL/min/kg
half-life [42]: 3.6 h
remaining at 10 min [43]: 77%
solubility [44]: 383 µg/mL (≈ 681 µM)
pIC50 (Cytochrome P450 2D6): 4.40
bioavailability [45]: 100%
solubility [46]: 28 µg/mL (≈ 49.8 µM)
Cmax [47]: 1.6 µM
Tmax [48]: 2 h
logD [49]: 1.32
Cmax [50]: 49 µM
SMILES: COCCCO[C@H]1CN(c2ccc(O[C@@H]3CCN(c4cc(OC)ncc4Cl)C[C@H]3C)cc2)[C@@H](CC(=O)O)[C@@H]1C
Activity (Rattus norvegicus [1]): Active
Activity [11]: Non-Toxic
Activity (Rattus norvegicus [12]): inactive
Activity (Rattus norvegicus [13]): 148%
Activity (Mus musculus [21]): Active
Activity [24]: Toxic
Activity (Mus musculus [28]): inactive
AUC at […] [29]: 53 µM·h
Activity [30]: Non-Toxic
Activity (Rattus norvegicus [31]): 26%
Activity [34]: Non-Toxic
Activity (Rattus norvegicus [39]): inactive
